Experimental data as given in patent US20230137491A1, “PEPTIDES AND USES THEREOF” (SINTICA BIOTECH SOCIETÀ A RESPONSABILITÀ LIMITATA …, priority 2020, published 2023).
Non-standard residues stand in square brackets, D forms with d. methoxy‑PEG 20 kDa = linear 20 kDa methoxy-PEG conjugated through D-Cys sulfur

Tests used:
[1] = test system: primary and metastatic melanoma cell lines; experiment: Trypan blue viable cell counting in relation to CD271 levels by flow cytometry; format: cell-based, human; conditions: five primary and metastatic melanoma cell lines
Description: FIG. 4. The peptide-induced cell death correlates with CD271 expression levels in melanoma cell lines. Five primary and metastatic melanoma cell lines were cultured and viability measured by Trypan blue staining solution. Flow cytometry was used to evaluate the expression level of CD271 receptor. Because CD271 mediates apoptosis in many cell systems, we analysed the effect of XYZ in melanoma cell lines in relation to the levels of the receptor. After treatment, melanoma cell lines were harvested and incubated with Trypan Blue staining solution or incubated with CD271 antibody for flow cytometer analysis.

[2] = test system: WM266-4 melanoma cell line; experiment: Cell death analysis by flow cytometry (propidium iodide, sub-G1); format: cell-based, human; conditions: WM266-4, 24 h and 48 h, versus diluent
Description: (§1) FIG. 5. […] WM266-4 melanoma cell line was cultured and the rate of apoptosis measured after treatment with the peptide (XYZ) as compared to diluent at different time points by flow cytometry (A) counting % of cells in sub-G1 with propidium iodide staining or (B) counting % of Annexin positive cells staining. Student's t-test was used for comparison of the means
WM266-4 cell line was treated with the peptide (XYZ) or diluent at different time points. After 24 and 48 h, cells were trypsinised and resuspended in hypotonic fluorochrome solution: 50 μg/ml propidium iodide containing 0.1% sodium citrate and 0.5% Triton X-100 (Sigma Aldrich, Milano, Italy). After 15 min, cells were analyzed using an Epics XL flow cytometer (Coulter Electronics Inc., Hialeah, Fla., USA). Apoptosis was detected by evaluating the reduced fluorescence of the DNA-binding dye PI in the apoptotic nuclei.
(§2) In particular, XYZ triggers melanoma apoptosis, a most well-known type of programmed cell death in culture. […] In details, melanoma cell lines, gently were trypsinised and washed once with serum-containing media before incubation with annexin V-FITC or with propidium iodide. 24 h and 48 h later, FITC signal detector or sub G0/G1 peak for annexin or PI staining respectively, were observed by flow cytometry.

[3] = test system: WM266-4 melanoma cell line; experiment: Annexin V staining by flow cytometry; format: cell-based, human; conditions: WM266-4, 24 h and 48 h, versus diluent
Description: as §1
WM266-4 cell line was treated with the peptide (XYZ) or diluent at different time points. After 24 and 48 h, cells were trypsinised, collected by centrifugation and resuspended in 500 μL of binding buffer containing annexin V-FITC and propidium iodide (PI). After incubation at room temperature for 5 min in the dark, annexin V-FITC binding was analyzed by flow cytometry using FITC signal detector and PI staining by the phycoerythrin emission signal detector.
as §2

[4] = test system: SKMel28 melanoma cell lines overexpressing CD271; experiment: MTT assay in cells overexpressing CD271 (CD271 viral vector); format: cell-based, human; conditions: SKMel28 with CD271 viral vector
Text: FIG. 6. The peptide reduces melanoma cell viability through CD271. WM115 melanoma cell line was transiently transfected with CD271 siRNA, as shwon by western blotting. MTT assay was used to measure cell viability after treatment with the peptide (XYZ) or the diluent in siRNA and scramble cells. SKme128 melanoma cell line was transiently transfected with CD271 mRNA, as shown by western blotting. MTT assay was used to measure cell viability after treatment with the peptide (XYZ) or the diluent in siRNA and scramble cells. Student's t-test was used for comparison of the means.
5×10^3 cells/well were seeded in 96-well culture plates. At different time points, cells were incubated with 0.5% MTT (3-(4,5-dimethylthiazol-2-yl)-2,5-diphenyltetrazolium bromide) for 4 h at 37° C. and then dissolved with 100 μl Isopropanol with 0.04N HCl. The plate was read at 560 nm with a reference filter of 650 nm. Results are expressed as viability percentage, as compared to control.
Skme128 cell line was plated according to the liquid overlay method. After 24 h, cells were transduced by infection with viral supernatant generated by CD271-LNSN packaging cells or by LNSN packaging cells (kindly provided from F. Mavilio) in appropriate medium for melanoma, as described previously in the presence of polybrene (8 μg/ml). 48 h after infection cells were lysed for WB analysis or seeded for MTT assay.

[5] = test system: melanoma cells derived from patient with BRAF mutation in zebrafish; experiment: Zebrafish xenotransplant with melanoma cells from a patient with BRAF mutation; format: in vivo; conditions: embryos with metastasis counted 5 days post injection, versus control
Description: FIG. 11. The peptide reduces initial metastasis formation in zebrafish injected with melanoma cells. Metastatic melanoma cells from a patient with BRAF mutation were treated with the peptide, DTIC, the peptide in combination with DTIC, DTIC alone, BRAF inhibitor or left untreated. They were stained with Vibrant Cell Labelling Solution (red) and injected into the yolk of transparent zebrafish larvae and monitored. The number of embryos with metastasis was counted at 5 days post injection.
The use of melanoma biopsies was approved by the ethical committee (Comitato Etico dell'Area Vasta Emilia Nord). Biopsies were taken from the University Hospital Policlinico of Modena and patient gave inform consent. […]
(§3) Zebrafish handling was performed at the Zebrafish Centre of the University of Padova, Italy, under ethical committee (OPBA) authorization 407/2015-PR. […] Zebrafishes were monitored daily and documented from 1 day post injection (dpi) up to 1 week (experimental endpoint). […]
(§4) For xenotransplantation, albino embryos were mechanically dechorionated at 2 days post-fertilisation, anesthetized with tricaine 0.16 mg/ml and placed along plastic lanes immersed in 2% methylcellulose/PBS. […] Stained cells were loaded in a glass capillary needle and microinjected into the yolk (about 50 cells/embryo), Xenotransplanted embryos were monitored daily and documented from one day post injection up to one week.

[6] = test system: SKmel 28 cell line in zebrafish; experiment: Zebrafish xenotransplant with SKmel28 cell line; format: in vivo; conditions: SKmel28, embryos with metastasis counted 5 days post injection
Description: FIG. 12. […] SKMel28 melanoma cell line was treated with XYZ, DTIC, the peptide in combination with DTIC, or left untreated. They were stained with Vibrant Cell Labelling Solution (red) and injected into the yolk of transparent zebrafish larvae and monitored. The number of embryos with metastasis was counted at 5 days post injection.
as §3, with “407/2015-PR. Zebrafish embryos were obtained from natural spawning of albino adults, raised following standard protocols (Westerfield, M et al., 2000) and staged according to Kimmel et al. (1995).” for “407/2015-PR.”
as §4

## Ac-DMet-DLeu-Gly-DIle-DIle-DAla-Gly-DLys-DAsn-DSer-Gly-DCys-NH2 with a linear 20 kDa methoxy-PEG polymer conjugated to the D-Cys residue through the sulfur atom of the latter (Ac-[dM][dL]G[dI][dI][dA]G[dK][dN][dS]G[dC](methoxy‑PEG 20 kDa)-NH2) [XYZ]
[1]
  cell death versus CD271 expression level (Trypan blue viable cell counting, flow cytometry): more efficacious in cell lines expressing higher levels of CD271
[2]
  rate of apoptosis (propidium iodide, subG1 analysis): significantly higher rate of apoptosis than diluent alone
[3]
  rate of apoptosis (Annexin staining): significantly higher rate of apoptosis than diluent alone
[4]
  cell death (MTT assay) in CD271-overexpressing cells: induces cell death to a greater extent
[5]
  metastasis formation in zebrafish: reduces metastasis formation
[6]
  full metastasis in xenotransplanted zebrafish: reduces full metastasis
